This assay relates to P388. Put plainly: Cytotoxicity against mouse P388 cells. It is filed as functional. Particulars: read-out: ED50 (the source's name).

Converted amounts (≈) assume the structure as drawn. Where a SMILES comes first, the peptide text is derived from it. [ ]: non-standard residue; d: D form. Met(O) = CS(=O)CC[C@H](N)C(=O)O

Turning to `CC[C@H](C)[C@@H]1NC(=O)[C@H](C)NC(=O)[C@H](CC[S+](C)[O-])NC(=O)[C@H](C)NC(=O)[C@H](CC(=O)OC)NC(=O)[C@H](Cc2ccccc2)NC(=O)[C@@H]2CCCN2C1=O` (stereo partly specified) [PHAKELLISTATIN 14] (cyclo(AIPFD(OMe)A[Met(O)])), the EC50 worked out at 5 µg/mL (≈ 6.44 µM).

The values above are taken from ChEMBL document CHEMBL1142563, “Isolation and structure of phakellistatin 14 from the Western Pacific marine sponge Phakellia sp” (2005).
